Test results as given in patent US8124647B2 (priority 2002, dated 2012).

Experiments:
human androgen receptor [1] = target: T1, human androgen receptor (Homo sapiens, UniProt P10275); assay: cell-based; settings: in the presence of 1 nM DHT
T1 construct: expressed in transfected cells; host or cells: CHO cells, cell line CHO-AR-pMMTV-LUC 1G12-A5-CA
T1 sequence (P10275 1-920): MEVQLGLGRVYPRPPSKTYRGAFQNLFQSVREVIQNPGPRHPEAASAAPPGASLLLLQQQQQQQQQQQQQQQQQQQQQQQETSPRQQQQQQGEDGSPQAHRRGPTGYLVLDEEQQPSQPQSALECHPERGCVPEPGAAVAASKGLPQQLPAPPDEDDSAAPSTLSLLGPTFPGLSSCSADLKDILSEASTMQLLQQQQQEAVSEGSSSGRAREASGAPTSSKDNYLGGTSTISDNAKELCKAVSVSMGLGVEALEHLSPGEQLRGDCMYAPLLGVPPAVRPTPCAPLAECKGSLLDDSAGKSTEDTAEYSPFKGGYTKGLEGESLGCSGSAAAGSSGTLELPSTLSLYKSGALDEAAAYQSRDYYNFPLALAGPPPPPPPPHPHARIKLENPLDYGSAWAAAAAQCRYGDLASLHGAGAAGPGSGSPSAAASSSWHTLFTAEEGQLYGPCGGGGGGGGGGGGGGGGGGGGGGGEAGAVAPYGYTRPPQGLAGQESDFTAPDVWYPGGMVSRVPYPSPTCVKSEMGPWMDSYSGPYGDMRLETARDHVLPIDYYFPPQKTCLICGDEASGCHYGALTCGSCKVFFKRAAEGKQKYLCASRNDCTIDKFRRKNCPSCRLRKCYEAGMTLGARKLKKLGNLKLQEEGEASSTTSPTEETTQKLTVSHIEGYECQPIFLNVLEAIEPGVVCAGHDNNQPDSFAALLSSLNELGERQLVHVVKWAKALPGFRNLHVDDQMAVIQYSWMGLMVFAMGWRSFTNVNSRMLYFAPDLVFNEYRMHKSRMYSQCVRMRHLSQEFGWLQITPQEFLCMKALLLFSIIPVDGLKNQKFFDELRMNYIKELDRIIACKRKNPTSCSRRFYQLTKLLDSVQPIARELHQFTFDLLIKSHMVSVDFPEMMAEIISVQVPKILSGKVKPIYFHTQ
Experimental: (§1) Compounds were tested for their Androgen Receptor activity in a transactivation assay and in a binding assay.
(§2) The (anti-)androgenic activity of test compounds (EC50 and intrinsic activity) was determined in an in vitro bioassay of Chinese hamster ovary (CHO) cells stably transfected with the human androgen receptor expression plasmid and a reporter plasmid in which the MMTV-promoter is linked to the luciferase reporter gene. The cell-line CHO-AR-pMMTV-LUC 1G12-A5-CA is described in Schoonen et al. (2000), Journal of Steroid Biochemistry and Molecular Biology 74(4):213-222. The antiandrogenic activity of a test compound was determined by the inhibition of the transactivation via the androgen receptor of the enzyme luciferase in the presence of 1 nM DHT (5α-dihydrotestosterone, 17β-hydroxy-5α-androstan-3-one). Intrinsic activity of antiandrogenic activity was determined in the presence of the reference antiandrogen 2-Hydroxy-2-methyl-N-(4-nitro-3-trifluoromethyl-phenyl)-propionamide(Hydroxyflutamide), and set at 100%. For androgenic activity, maximal intrinsic activity in the presence of 100 nM DHT was set at 100%.

human androgen receptor [2] = target: T1, human androgen receptor; assay: androgenic activity (EC50 and intrinsic activity), transactivation bioassay in CHO-AR-pMMTV-LUC cells (Table 4); format: cell-based
Experimental: as §1, §2

[3] = antiandrogenic activity, read-out: ant EC50
[4] = androgenic activity, read-out: ago EC50
[5] = ant EC50, antiandrogenic activity

Row | SMILES | EC50 (human androgen receptor [1]; [3]) [nM] | EC50 (human androgen receptor [2]; [4]) [nM] | EC50 (human androgen receptor [1]; [5]) [nM] | EC50 (human androgen receptor [2]; ago EC50, androgenic activity) [nM]
1 | O=C(NCC1CC1)c1ccc2c(Sc3ccccc3[N+](=O)[O-])cn(Cc3cc(F)cc(F)c3)c2c1 [Compound 41] | > 10000 | < 5 |  | 
2 | CC(C)CNC(=O)c1ccc2c(Sc3ccccc3[N+](=O)[O-])cn(Cc3cc(F)cc(F)c3)c2c1 [Compound 42] | > 10000 | 5 to 100 |  | 
3 | O=C(NCc1ccccc1)c1ccc2c(Sc3ccccc3[N+](=O)[O-])cn(Cc3cc(F)cc(F)c3)c2c1 [Compound 43] | < 1000 | 5 to 100 |  | 
4 | O=C(NC1CC1)c1ccc2c(Sc3ccccc3[N+](=O)[O-])cn(Cc3cc(F)cc(F)c3)c2c1 [Compound 44] | > 10000 | < 5 |  | 
5 | CCNC(=O)c1ccc2c(Sc3ccccc3[N+](=O)[O-])cn(Cc3cc(F)cc(F)c3)c2c1 [Compound 45] | > 10000 | < 5 |  | 
6 | CC(C)NC(=O)c1ccc2c(Sc3ccccc3[N+](=O)[O-])cn(Cc3cc(F)cc(F)c3)c2c1 [Compound 46] | 5 to 100 | 5 to 100 |  | 
7 | CNC(=O)c1ccc2c(Sc3ccccc3[N+](=O)[O-])cn(Cc3cc(F)cc(F)c3)c2c1 [Compound 47, 1-(3,5-Difluoro-benzyl)-3-(2-nitro-phenylsulfanyl)-1H-indole-6-carboxylic acid methylamide] | > 10000 | < 5 |  | 
8 | CCCNC(=O)c1ccc2c(Sc3ccccc3[N+](=O)[O-])cn(Cc3cc(F)cc(F)c3)c2c1 [Compound 48] | < 1000 | 5 to 100 |  | 
9 | CN(C)C(=O)c1ccc2c(Sc3ccccc3[N+](=O)[O-])cn(Cc3cc(F)cc(F)c3)c2c1 [Compound 49] | > 10000 | < 5 |  | 
10 | O=[N+]([O-])c1ccccc1Sc1cn(Cc2cc(F)cc(F)c2)c2cc(F)ccc12 [Compound 50] | > 10000 | 5 to 100 |  | 
11 | O=[N+]([O-])c1ccccc1Sc1cn(Cc2cc(F)cc(F)c2)c2cccc(F)c12 [Compound 51] | > 10000 | < 5 |  | 
12 | O=[N+]([O-])c1ccccc1Sc1cn(Cc2cc(F)cc(F)c2)c2ccccc12 [Compound 52] | > 10000 | 5 to 100 |  | 
13 | O=[N+]([O-])c1ccccc1Sc1cn(Cc2cc(F)cc(F)c2)c2ccc(F)cc12 [Compound 53] | > 10000 | 5 to 100 |  | 
14 | O=[N+]([O-])c1ccccc1Sc1cn(Cc2cc(F)cc(F)c2)c2cccc(Cl)c12 [Compound 54] | > 10000 | 5 to 100 |  | 
15 | Cc1cccc2c1c(Sc1ccccc1[N+](=O)[O-])cn2Cc1cc(F)cc(F)c1 [Compound 55] | > 10000 | 5 to 100 |  | 
16 | Nc1ccc2c(Sc3ccccc3[N+](=O)[O-])cn(Cc3cc(F)cc(F)c3)c2c1 [Compound 57, 1-(3,5-Difluoro-benzyl)-3-(2-nitro-phenylsulfanyl)-1H-indol-6-ylamine] | > 10000 | < 1000 |  | 
17 | CC(=O)Nc1ccc2c(Sc3ccccc3[N+](=O)[O-])cn(Cc3cc(F)cc(F)c3)c2c1 [Compound 58, N-[1-(3,5-Difluoro-benzyl)-3-(2-nitro-phenylsulfanyl)-1H-indol-6-yl]-acetamide] | > 10000 | < 5 |  | 
18 | O=C(Nc1ccc2c(Sc3ccccc3[N+](=O)[O-])cn(Cc3cc(F)cc(F)c3)c2c1)C(F)(F)F [Compound 59, N-[1-(3,5-Difluoro-benzyl)-3-(2-nitro-phenylsulfanyl)-1H-indol-6-yl]-2,2,2-trifluoro-acetamide] | > 10000 | < 5 |  | 
19 | O=[N+]([O-])c1ccc2c(Sc3ccccc3[N+](=O)[O-])cn(Cc3cc(F)cc(F)c3)c2c1 [Compound 60] |  |  | > 10000 | < 5
20 | COc1ccc2c(S(=O)(=O)c3ccccc3[N+](=O)[O-])cn(Cc3cc(F)cc(F)c3)c2c1 [Compound 62, 1-(3,5-Difluoro-benzyl)-6-methoxy-3-(2-nitro-benzenesulfonyl)-1H-indole] | > 10000 | < 5 |  | 
21 | COc1ccc2c(Sc3ccccc3[N+](=O)[O-])cn(Cc3cc(F)cc(F)c3)c2c1 [Compound 63, 1-(3,5-Difluoro-benzyl)-6-methoxy-3-(2-nitro-phenylsulfanyl)-1H-indole] | > 10000 | < 5 |  | 
22 | COc1ccc2c([S+]([O-])c3ccccc3[N+](=O)[O-])cn(Cc3cc(F)cc(F)c3)c2c1 (stereo not shown) [Compound 64, 1-(3,5-Difluoro-benzyl)-6-methoxy-3-(2-nitro-benzenesulfinyl)-1H-indole] | < 1000 | > 10000 |  | 

Row | SMILES | EC50 (human androgen receptor [1]; [3]) [nM] | EC50 (human androgen receptor [2]; [4]) [nM] | EC50 (human androgen receptor [1]; [5]) [nM] | EC50 (human androgen receptor [2]; ago EC50, androgenic activity) [nM]
23 | COc1ccc2c(Sc3ccccn3)cn(Cc3cc(F)cc(F)c3)c2c1 [Compound 65, 1-(3,5-Difluoro-benzyl)-6-methoxy-3-(pyridin-2-ylsulfanyl)-1H-indole] | > 10000 | 5 to 100 |  | 
24 | COc1ccc2c(Sc3cccc[n+]3[O-])cn(Cc3cc(F)cc(F)c3)c2c1 [Compound 66] | 5 to 100 | < 1000 |  | 
25 | COc1ccc2c(Sc3ccccc3[N+](=O)[O-])cn(Cc3cccc(Cl)c3)c2c1 [Compound 67] | > 10000 | 5 to 100 |  | 
26 | COc1ccc2c(Sc3ccccc3[N+](=O)[O-])cn(Cc3cccc(C#N)c3)c2c1 [Compound 68] | > 10000 | < 5 |  | 
27 | COc1ccc2c(Sc3ccccc3[N+](=O)[O-])cn(Cc3cc(F)cc(C(F)(F)F)c3)c2c1 [Compound 69] | > 10000 | 5 to 100 |  | 
28 | COc1ccc2c(Sc3ccccc3[N+](=O)[O-])cn(Cc3cc(F)ccc3C(F)(F)F)c2c1 [Compound 70] | > 10000 | 5 to 100 |  | 
29 | COc1ccc2c(Sc3ccccc3[N+](=O)[O-])cn(Cc3cccc(F)c3)c2c1 [Compound 71] | > 10000 | < 5 |  | 
30 | COc1cccc(Cn2cc(Sc3ccccc3[N+](=O)[O-])c3ccc(OC)cc32)c1 [Compound 72] | > 10000 | 5 to 100 |  | 
31 | COc1ccc2c(Sc3ccccc3[N+](=O)[O-])cn(Cc3cccc(C)c3)c2c1 [Compound 73] | > 10000 | 5 to 100 |  | 
32 | COc1ccc2c(Sc3ccccc3[N+](=O)[O-])cn(Cc3cccc([N+](=O)[O-])c3)c2c1 [Compound 74] |  |  | > 10000 | < 5
33 | COc1ccc2c(Sc3ccccc3[N+](=O)[O-])cn(Cc3cccnc3)c2c1 [Compound 75] | > 10000 | < 5 |  | 
34 | COc1ccc2c(Sc3ccccc3[N+](=O)[O-])cn(Cc3ccc(Cl)c(C(F)(F)F)c3)c2c1 [Compound 76] | > 10000 | < 1000 |  | 
35 | COc1ccc2c(Sc3ccccc3[N+](=O)[O-])cn(Cc3cccc(OC(F)(F)F)c3)c2c1 [Compound 77] | > 10000 | 5 to 100 |  | 
36 | COc1ccc2c(Sc3ccccc3[N+](=O)[O-])cn(Cc3cccc(C(F)(F)F)c3)c2c1 [Compound 78] | > 10000 | 5 to 100 |  | 
37 | COc1ccc2c(Sc3ccccc3[N+](=O)[O-])cn(Cc3csc(C)n3)c2c1 [Compound 79] | > 10000 | 5 to 100 |  | 
38 | COc1ccc2c(Sc3ccccc3[N+](=O)[O-])cn(Cc3c(C)noc3C)c2c1 [Compound 80] | < 1000 | < 1000 |  | 
39 | COc1ccc2c(Sc3ccccc3[N+](=O)[O-])cn(Cc3ccc(Cl)cc3)c2c1 [Compound 81] | < 5 | < 1000 |  | 
40 | COc1ccc2c(Sc3ccccc3[N+](=O)[O-])cn(Cc3ccc(C#N)cc3)c2c1 [Compound 82] | > 10000 | 5 to 100 |  | 
41 | COc1ccc2c(Sc3ccccc3[N+](=O)[O-])cn(Cc3ccc(F)cc3)c2c1 [Compound 83] | > 10000 | 5 to 100 |  | 
42 | COc1ccc(Cn2cc(Sc3ccccc3[N+](=O)[O-])c3ccc(OC)cc32)cc1 [Compound 84] | 1000 to 10000 | < 1000 |  | 
43 | COc1ccc2c(Sc3ccccc3[N+](=O)[O-])cn(Cc3ccc(C)cc3)c2c1 [Compound 85] | > 10000 | < 1000 |  | 
44 | COc1ccc2c(Sc3ccccc3[N+](=O)[O-])cn(Cc3cnc(Cl)s3)c2c1 [Compound 87] | > 10000 | 5 to 100 |  | 
